Data taken from patent publication US20260297105A1, “RAF-MEK PROTEIN COMPLEX MODULATORS AND METHODS OF USE THEREOF” (GANDEEVA THERAPEUTICS, INC., priority 2023, published 2026).

target: T1, MEK1 (Homo sapiens, UniProt Q02750); assay: MEK1 kinase cascade assay (ADP-Glo), inhibition of MEK1 kinase activity; format: biochemical; conditions: 25 nM BRAF, 6.25 nM MEK1, 0.5 μM ERK, 1 mM ATP; 20 min preincubation, 1 hr at 25° C.; read-out: BRAF ADP Glo kinase assay V3 (IC50)
T1 construct: purchased SignalChem M02-14H
Excerpt: Protein expression and purification: BRAF (445-723) with N-term His-tag and C-term StrepII tag was expressed using the Expi293 system (ThermoFisher) and purified using Strep-Tactin® XT-Superflow (IBA) chromatography. ERK1 (full-length) with N-term His-tag was expressed in Rosetta DE3 cells (Millipore) and purified using HisTrap HP (Cytiva) and Superdex 200 (Cytiva) column chromatography. Full-length MEK1 for TR-FRET assays with N-term His-tag was expressed in BL21DE3 cells (ThermoFisher) and purified using HisTrap HP (Cytiva) and Superdex 200 (Cytiva) column chromatography.
Efficacy of exemplary compounds in inhibition of MEK1 kinase activity: The effect of compound MEK1 inhibition was evaluated using an ADP detection system for kinases, such as the ADP-Glo assay (Promega). The MEK1 kinase cascade assay consisted of 9 μL reaction volumes in 384-well white, opaque Optiplates (PerkinElmer). Compounds were prepared from DMSO stocks in assay buffer (10 mM HEPES pH 7.5, 5 mM MgCl2, 2 mM CHAPS, and 1 mM DTT) and preincubated with 25 nM BRAF for 20 mins at 25° C. prior to addition of 6.25 nM MEK1/0.5 μM ERK/1 mM ATP premix to initiate the kinase reaction. Both BRAF and ERK1 were produced in-house, and MEK1 was purchased from SignalChem (M02-14H). DMSO was kept constant at a final concentration of 1%. After a 1 hr incubation at 25° C., conversion of ATP to ADP was detected using ADP-Glo™ reagents according to the manufacturer's protocol. Luminescence was measured using a CLARIOstar microplate reader (BMG). Percent (%) Inhibition was calculated by normalizing to DMSO control (max) and 1 μM Trametinib (min). % inhibition as a function of compound concentration from 2 replicate wells was fit with a 4-parameter logistic curve equation using GraphPad Prism or CDD Vault to derive IC50 values.
In this table, for the BRAF ADP Glo kinase assay, “A” indicates IC50 of less than 5 nM; “B” indicates IC50 of between 5 nM to 50 nM; and “C” indicates IC50 of between 50 nM to 500 nM. “D” indicates IC50 of greater than 500 nM. For the BRAF-MEK TR-FRET assay, “A” indicates EC50 of less than 50 nM; “B” indicates EC50 of between 50 nM to 200 nM; and “C” indicates EC50 of between 200 nM to 1 μM. “D′” indicates EC50 of greater than 1 μM. For the AlphaLisa P-ERK assay, “A” indicates IC50 of less than 1 nM; “B” indicates IC50 of between 1 nM to 10 nM; and “C” indicates IC50 of between 10 nM to 100 nM. “D” indicates IC50 of greater than 100 nM. For the cell viability assay, “A” indicates IC50 of less than 1 nM; “B” indicates IC50 of between 1 nM to 10 nM; and “C” indicates IC50 of between 10 nM to 100 nM. “D” indicates IC50 of greater than 100 nM.

T1 sequence (Q02750 whole entry): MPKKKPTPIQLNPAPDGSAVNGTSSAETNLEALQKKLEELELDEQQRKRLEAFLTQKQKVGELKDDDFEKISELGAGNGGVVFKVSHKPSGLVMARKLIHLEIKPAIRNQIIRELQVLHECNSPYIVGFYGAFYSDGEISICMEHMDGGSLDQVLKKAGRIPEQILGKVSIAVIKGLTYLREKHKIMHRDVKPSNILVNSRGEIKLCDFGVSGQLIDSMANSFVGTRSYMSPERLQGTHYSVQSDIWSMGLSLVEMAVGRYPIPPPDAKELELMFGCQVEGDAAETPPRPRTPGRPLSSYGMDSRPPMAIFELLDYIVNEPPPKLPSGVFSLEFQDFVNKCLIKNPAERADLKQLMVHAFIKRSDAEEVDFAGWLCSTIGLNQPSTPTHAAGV
T1 sequence (P15056 445-723 partner limits assumed): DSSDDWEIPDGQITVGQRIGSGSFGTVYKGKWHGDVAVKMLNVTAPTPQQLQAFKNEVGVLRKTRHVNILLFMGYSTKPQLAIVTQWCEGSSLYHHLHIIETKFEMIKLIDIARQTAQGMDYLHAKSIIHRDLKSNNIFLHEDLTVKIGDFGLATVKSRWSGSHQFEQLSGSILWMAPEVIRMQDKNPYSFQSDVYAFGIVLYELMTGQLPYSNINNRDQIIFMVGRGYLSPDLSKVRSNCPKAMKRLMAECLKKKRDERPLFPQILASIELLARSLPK

| IC50 | Compound |
| --- | --- |
| 5 to 50 nM | CNS(=O)(=O)Nc1cccc(CN2C(=O)Oc3c(ccc(Oc4ncccn4)c3F)[C@@H]2C)c1F (single isomer, unassigned) [Compound 92, (S)-8-fluoro-3-({2-fluoro-3-(methylsulfamoyl)amino]phenyl}methyl)-4-methyl-7-(pyrimidin-2-yloxy)-3,4-dihydro-2H-1,3-benzoxazin-2-one or (R)-8-fluoro-3-({2-fluoro-3-(methylsulfamoyl)amino]phenyl}methyl)-4-methyl-7-(pyrimidin-2-yloxy)-3,4-dihydro-2H-1,3-benzoxazin-2-one] |
| 50 to 500 nM | O=C1Oc2cc(Oc3cccnn3)ccc2CN1Cc1cccc(N2CCOC2=O)c1F [Compound 26, 3-{[2-fluoro-3-(2-oxo-1,3-oxazolidin-3-yl)phenyl]methyl}-7-(3-pyridazinyloxy)-3,4-dihydro-2H-1,3-benzoxazin-2-one] |
| 50 to 500 nM | CNS(=O)(=O)Nc1cc(F)cc(CN2C(=O)Oc3cc(Oc4ncco4)ccc3C23CCC3)c1F [Compound 195, 3-{[2,5-difluoro-3-(methylaminosulfonylamino)phenyl]methyl}-7-(1,3-oxazol-2-yloxy)-2H,3H-spiro[1,3-benzoxazine-4,1′-cyclobutan]-2-one] |
| 50 to 500 nM | CNS(=O)(=O)Cc1cccc(CN2C(=O)Oc3cc(Oc4cccnn4)ccc3C23COC3)c1F [Compound 46, 1-(2-fluoro-3-{[2-oxo-7-(pyridazin-3-yloxy)-2,3-dihydrospiro[1,3-benzoxazine-4,3′-oxetan]-3-yl]methyl}phenyl)-N-methylmethanesulfonamide] |
| 5 to 50 nM | CNS(=O)(=O)Nc1cccc(CN2Cc3ccc(Oc4ncccn4)cc3OC2=O)c1F [Compound 157, 3-({2-fluoro-3-[(methylsulfamoyl)amino]phenyl}methyl)-7-(pyrimidin-2-yloxy)-3,4-dihydro-2H-1,3-benzoxazin-2-one] |
| 50 to 500 nM | C[C@@H]1c2c(F)cc(Oc3cccnn3)cc2OC(=O)N1Cc1cccc(NS(=O)(=O)C2CC2)c1F (single isomer, unassigned) [Compound 54] |
| > 500 nM | CNS(=O)(=O)Nc1cccc(CN2C(=O)Oc3c(ccc(Oc4ncccn4)c3F)C23COC3)c1F [Compound 88] |
| 5 to 50 nM | CNS(=O)(=O)Nc1cccc(CN2C(=O)Oc3cc(Oc4ncco4)c(F)cc3[C@@H]2C)c1F (single isomer, unassigned) [Compound 84, (S)-6-fluoro-3-({2-fluoro-3-(methylsulfamoyl)amino]phenyl}methyl)-4-methyl-7-(1,3-oxazol-2-yloxy)-3,4-dihydro-2H-1,3-benzoxazin-2-one or (R)-6-fluoro-3-({2-fluoro-3-(methylsulfamoyl)amino]phenyl}methyl)-4-methyl-7-(1,3-oxazol-2-yloxy)-3,4-dihydro-2H-1,3-benzoxazin-2-one] |
| 50 to 500 nM | O=C1Oc2cc(Oc3cnccn3)ccc2C2(COC2)N1Cc1cccc(NS(=O)(=O)C2CC2)c1F [Compound 69, N-(2-fluoro-3-{[2-oxo-7-(pyrazin-2-yloxy)-2,3-dihydrospiro[1,3-benzoxazine-4,3′-oxetan]-3-yl]methyl}phenyl)cyclopropanesulfonamide] |
| 5 to 50 nM | CNS(=O)(=O)Nc1cccc(CN2C(=O)Oc3c(ccc(Oc4ncco4)c3F)[C@H]2C)c1F (single isomer, unassigned) [Compound 90, (R)-8-fluoro-3-({2-fluoro-3-(methylsulfamoyl)amino]phenyl}methyl)-4-methyl-7-(1,3-oxazol-2-yloxy)-3,4-dihydro-2H-1,3-benzoxazin-2-one or (S)-8-fluoro-3-({2-fluoro-3-(methylsulfamoyl)amino]phenyl}methyl)-4-methyl-7-(1,3-oxazol-2-yloxy)-3,4-dihydro-2H-1,3-benzoxazin-2-one] |
| 5 to 50 nM | CNS(=O)(=O)Nc1cccc(CN2Cc3ccc(Oc4cccnc4)cc3OC2=O)c1F [Compound 61, 3-{[2-fluoro-3-(methylaminosulfonylamino)phenyl]methyl}-7-(3-pyridyloxy)-3,4-dihydro-2H-1,3-benzoxazin-2-one] |
| 5 to 50 nM | CNS(=O)(=O)Nc1nccc(CN2C(=O)Oc3cc(Oc4ncc(C)o4)ccc3C23CCC3)c1F [Compound 180, 3-{[3-fluoro-2-(methylaminosulfonylamino)-4-pyridyl]methyl}-7-(5-methyl-1,3-oxazol-2-yloxy)-2H,3H-spiro[1,3-benzoxazine-4,1′-cyclobutan]-2-one] |
| 50 to 500 nM | CNS(=O)(=O)Nc1cccc(CN2C(=O)Oc3cc(Oc4cnccn4)ccc3C23COC3)c1F [Compound 70, 3-({2-fluoro-3-[(methylsulfamoyl)amino]phenyl}methyl)-7-(pyrazin-2-yloxy)-2,3-dihydrospiro[1,3-benzoxazine-4,3′-oxetan]-2-one] |
| 50 to 500 nM | CNS(=O)(=O)Nc1ccc(F)c(CN2C(=O)Oc3cc(Oc4cccnn4)ccc3C23CCC3)c1F [Compound 197, 3-{[2,6-difluoro-3-(methylaminosulfonylamino)phenyl]methyl}-7-(3-pyridazinyloxy)-2H,3H-spiro[1,3-benzoxazine-4,1′-cyclobutan]-2-one] |
| 50 to 500 nM | O=C1Oc2cc(Oc3ncco3)c(F)cc2C2(COC2)N1Cc1ccnc(NS(=O)(=O)C2CC2)c1F [Compound 172, N-(3-fluoro-4-((6-fluoro-7-(oxazol-2-yloxy)-2-oxospiro[benzo[e][1,3]oxazine-4,3′-oxetan]-3(2H)-yl)methyl)pyridin-2-yl)cyclopropanesulfonamide] |
| 50 to 500 nM | O=C1Oc2cc(Oc3cccnc3)ccc2CN1Cc1cccc(NS(=O)(=O)C2CC2)c1F [Compound 60, (cyclopropylsulfonyl)(2-fluoro-3-{[2-oxo-7-(3-pyridyloxy)-3,4-dihydro-2H-1,3-benzoxazin-3-yl]methyl}phenyl)amine] |
| 5 to 50 nM | CNS(=O)(=O)Nc1cccc(CN2C(=O)Oc3c(ccc(Oc4ncccn4)c3F)[C@H]2C)c1F (single isomer, unassigned) [Compound 93, (R)-8-fluoro-3-({2-fluoro-3-(methylsulfamoyl)amino]phenyl}methyl)-4-methyl-7-(pyrimidin-2-yloxy)-3,4-dihydro-2H-1,3-benzoxazin-2-one or (S)-8-fluoro-3-({2-fluoro-3-(methylsulfamoyl)amino]phenyl}methyl)-4-methyl-7-(pyrimidin-2-yloxy)-3,4-dihydro-2H-1,3-benzoxazin-2-one] |
| 5 to 50 nM | CNS(=O)(=O)Nc1cccc(CN2Cc3cc(C)c(Oc4ncccn4)cc3OC2=O)c1F [Compound 111, 3-({2-fluoro-3-[(methylsulfamoyl)amino]phenyl}methyl)-6-methyl-7-(pyrimidin-2-yloxy)-3,4-dihydro-2H-1,3-benzoxazin-2-one] |
| 5 to 50 nM | CNS(=O)(=O)Nc1cccc(CN2C(=O)Oc3cc(Oc4ccccn4)ccc3C23COC3)c1F [Compound 50, 3-({2-fluoro-3-[(methylsulfamoyl)amino]phenyl}methyl)-7-(pyridin-2-yloxy)-2,3-dihydrospiro[1,3-benzoxazine-4,3′-oxetan]-2-one] |

| Compound | IC50 |
| --- | --- |
| CN(C)C(=O)Oc1ccc2c(c1)OC(=O)N(Cc1cccc(N3CCOC3=O)c1F)C2 [Compound 27, dimethylamino-3-{[2-fluoro-3-(2-oxo-1,3-oxazolidin-3-yl)phenyl]methyl}-2-oxo-3,4-dihydro-2H-1,3-benzoxazin-7-ylformylate] | > 500 nM |
| CNS(=O)(=O)Cc1cccc(CN2Cc3ccc(OC(=O)N(C)C)cc3OC2=O)c1F [Compound 45, 3-(2-fluoro-3-((N-methylsulfamoyl)methyl)benzyl)-2-oxo-3,4-dihydro-2H-benzo[e][1,3]oxazin-7-yl dimethylcarbamate] | > 500 nM |
| CNS(=O)(=O)Cc1cccc(CN2C(=O)Oc3cc(OC(=O)N(C)C)ccc3C23COC3)c1F [Compound 47, 3-({2-fluoro-3-[(methylsulfamoyl)methyl]phenyl}methyl)-2-oxo-2,3-dihydrospiro[1,3-benzoxazine-4,3′-oxetan]-7-yl N,N-dimethylcarbamate] | 50 to 500 nM |
